Test results published in patent US5135857A, “Process for the preparation of de-mannosyl teicoplanin derivatives” (Gruppo Lepetit S.p.A., priority 1987, dated 1992).

Experiments:
Format in all cases: cell-based
[1] = tested on: Strep. faecalis L149 ATCC 7080; experiment: MIC broth dilution test, Strep. faecalis; conditions: Isosensitest broth, 24 h
Procedure: (§1) Culture media and growth conditions for MIC (minimal inhibitory concentration) determinations were as follows: Isosensitest broth (Oxoid), 24 h, for staphylococci, Strep. faecalis and Gram-negative bacteria ( Escherichia coli); Todd-Hewitt broth (Difco), 24 h for other streptococcal species; GC base broth (Difco)+1% Isovitalex (BBL), 48 h, CO2 -enriched atmosphere for Neisseria gonorrhoeae; Brain Heart broth (Difco)+1% Supplement C (Difco), 48 h for Haemophilus influenzae; Inocula were of about 10^4 -10^5 colony-forming units/ml for broth dilution MICs.

[2] = tested on: Staph. epidermidis L147 ATCC 12228 (coagulase negative); experiment: MIC broth dilution test, Staph. epidermidis; conditions: Isosensitest broth, 24 h
Procedure: as §1

[3] = tested on: Strip. pneumoniae L44 UC41; experiment: MIC broth dilution test, Strep. pneumoniae; conditions: Todd-Hewitt broth, 24 h
Procedure: as §1

[4] = tested on: Neisseria gonorrhoeae L997 ISM68/126; experiment: MIC broth dilution test, Neisseria gonorrhoeae; conditions: GC base broth + 1% Isovitalex, 48 h, CO2-enriched atmosphere
Procedure: as §1

[5] = tested on: Staph. haemolyticus L602 (clinical isolate); experiment: MIC broth dilution test, Staph. haemolyticus; conditions: Isosensitest broth, 24 h
Procedure: as §1

Strep. pyogenes L49 C203 = experiment: MIC broth dilution test, Strep. pyogenes; conditions: Todd-Hewitt broth, 24 h
Procedure: as §1

[6] = tested on: Strep. mitis L796 (clinical isolate); experiment: MIC broth dilution test, Strep. mitis; conditions: Todd-Hewitt broth, 24 h
Procedure: as §1

[7] = tested on: Haemophilus influenzae L970 type b ATCC 19418; experiment: MIC broth dilution test, Haemophilus influenzae; conditions: Brain Heart broth + 1% Supplement C, 48 h
Procedure: as §1

**Q.** How did the M.I.C. [1] turn out when `CC(=O)N[C@H]1[C@H](OC2c3ccc(c(Cl)c3)Oc3cc4cc(c3O[C@@H]3O[C@H](CO)[C@@H](O)[C@H](O)[C@H]3NC(=O)CCCCCCC(C)C)Oc3ccc(cc3Cl)CC3NC(=O)C(N)c5ccc(O)c(c5)Oc5cc(O)cc(c5)C(NC3=O)C(=O)NC4C(=O)NC3C(=O)NC2C(=O)NC(C(=O)O)c2cc(O)cc(O)c2-c2cc3ccc2O)O[C@H](CO)[C@@H](O)[C@@H]1O` (stereo partly shown) [DM-TA2-2, de-mannosyl teicoplanin complex component 2] was run?
**A.** 0.063 microgram/ml

**Q.** What about the M.I.C. [2] of the same molecule?
**A.** 0.063 microgram/ml

**Q.** And the M.I.C. [3]?
**A.** 0.063 microgram/ml

**Q.** And the M.I.C. [4]?
**A.** 32 microgram/ml

**Q.** What about the M.I.C. [5] of the same molecule?
**A.** 0.5 microgram/ml

**Q.** And the M.I.C. (Strep. pyogenes L49 C203)?
**A.** 0.063 microgram/ml

**Q.** And the M.I.C. [6]?
**A.** 0.063 microgram/ml

**Q.** What about the M.I.C. [7] of the same molecule?
**A.** 64 microgram/ml

**Q.** How did the M.I.C. [1] turn out when `CCCCCCCCCC(=O)N[C@H]1[C@H](Oc2c3cc4cc2Oc2ccc(cc2Cl)C(O[C@@H]2O[C@H](CO)[C@@H](O)[C@H](O)[C@H]2NC(C)=O)C2NC(=O)C(NC(=O)C4NC(=O)C4NC(=O)C(Cc5ccc(c(Cl)c5)O3)NC(=O)C(N)c3ccc(O)c(c3)Oc3cc(O)cc4c3)c3ccc(O)c(c3)-c3c(O)cc(O)cc3C(C(=O)O)NC2=O)O[C@H](CO)[C@@H](O)[C@@H]1O` (stereo partly shown) [DM-TA2-3, de-mannosyl teicoplanin complex component 3] was run?
**A.** 0.063 microgram/ml

**Q.** What about the M.I.C. [2] of the same molecule?
**A.** 0.063 microgram/ml

**Q.** What about the M.I.C. [3] of the same molecule?
**A.** 0.063 microgram/ml

**Q.** What about the M.I.C. [4] of the same molecule?
**A.** 32 microgram/ml

**Q.** And the M.I.C. [5]?
**A.** 0.5 microgram/ml

**Q.** And the M.I.C. (Strep. pyogenes L49 C203)?
**A.** 0.063 microgram/ml

**Q.** And the M.I.C. [6]?
**A.** 0.063 microgram/ml

**Q.** And the M.I.C. [7]?
**A.** 64 microgram/ml

**Q.** Which results are given for `CCC(C)CCCCCCC(=O)N[C@H]1[C@H](Oc2c3cc4cc2Oc2ccc(cc2Cl)C(O[C@@H]2O[C@H](CO)[C@@H](O)[C@H](O)[C@H]2NC(C)=O)C2NC(=O)C(NC(=O)C4NC(=O)C4NC(=O)C(Cc5ccc(c(Cl)c5)O3)NC(=O)C(N)c3ccc(O)c(c3)Oc3cc(O)cc4c3)c3ccc(O)c(c3)-c3c(O)cc(O)cc3C(C(=O)O)NC2=O)O[C@H](CO)[C@@H](O)[C@@H]1O` (stereo partly shown) [DM-TA2-4, de-mannosyl teicoplanin complex component 4]?
**A.** M.I.C. [1]: 0.063 microgram/ml; M.I.C. [2]: 0.063 microgram/ml; M.I.C. [3]: 0.063 microgram/ml; M.I.C. [4]: 32 microgram/ml; M.I.C. [5]: 0.5 microgram/ml; M.I.C. (Strep. pyogenes L49 C203): 0.063 microgram/ml; M.I.C. [7]: 64 microgram/ml

**Q.** Which results are given for `CC(=O)N[C@H]1[C@H](OC2c3ccc(c(Cl)c3)Oc3cc4cc(c3O[C@@H]3O[C@H](CO)[C@@H](O)[C@H](O)[C@H]3NC(=O)CCCCCCCC(C)C)Oc3ccc(cc3Cl)CC3NC(=O)C(N)c5ccc(O)c(c5)Oc5cc(O)cc(c5)C(NC3=O)C(=O)NC4C(=O)NC3C(=O)NC2C(=O)NC(C(=O)O)c2cc(O)cc(O)c2-c2cc3ccc2O)O[C@H](CO)[C@@H](O)[C@@H]1O` (stereo partly shown) [DM-TA2-5, de-mannosyl teicoplanin complex component 5]?
**A.** M.I.C. [1]: 0.063 microgram/ml; M.I.C. [2]: 0.063 microgram/ml; M.I.C. [3]: 0.063 microgram/ml; M.I.C. [4]: 32 microgram/ml; M.I.C. [5]: 0.25 microgram/ml; M.I.C. (Strep. pyogenes L49 C203): 0.063 microgram/ml; M.I.C. [6]: 0.063 microgram/ml; M.I.C. [7]: 32 microgram/ml
